Key:
Assay type in all cases: functional
Rattus norvegicus [1] = assay: Compound was evaluated in rat PCA (passive cutaneous anaphylaxis) test administered at 100 mg/kg orally and the inhibition of PCA due to inhibition of IgE mediated release was determined; settings: for inhibition in vivo at 100 mg/kg: Rattus norvegicus, po
Rattus norvegicus [2] = assay: Evaluated in rat PCA (passive cutaneous anaphylaxis) test administered at 60 mg/kg ip and the inhibition of PCA due to inhibition of IgE mediated release was determined; settings: route intraperitoneal; for inhibition in vivo at 60 mg/kg: Rattus norvegicus, ip
Rattus norvegicus [3] = assay: Compound was evaluated in rat PCA (passive cutaneous anaphylaxis) test administered intravenously; settings: iv
Rattus norvegicus [4] = assay: Compound was evaluated in rat PCA(passive cutaneous anaphylaxis) test administered intravenously.; settings: iv

SMILES | inhibition in vivo at 60 mg/kg (Rattus norvegicus [2]) [%] | other results
O=c1c2ccccc2ncn1-c1nnn[nH]1 | 100 | inhibition in vivo at 100 mg/kg (Rattus norvegicus [1]): 89%
CCc1nc2ccccc2c(=O)n1-c1nn[nH]n1 | 41 | –
O=c1c2cc(Cl)ccc2ncn1-c1nn[nH]n1 | 89 | –
O=C([O-])c1cc(=O)c2c(OCC(O)COc3cccc4oc(C(=O)[O-])cc(=O)c34)cccc2o1.[Na+].[Na+] [CROMOLYN SODIUM] | 100 | inhibition in vivo at 100 mg/kg (Rattus norvegicus [1]): 0%; ED50 (Rattus norvegicus [3]): 0.7 mg/kg
O=c1c2cc3c(cc2ncn1-c1nn[nH]n1)OCO3 | 90 | –
Nc1ccccc1C(=O)Nc1nn[nH]n1 | 59 | inhibition in vivo at 100 mg/kg (Rattus norvegicus [1]): 7%; ED50 (Rattus norvegicus [3]): 10.5 mg/kg
Cc1cccc2ncn(-c3nn[nH]n3)c(=O)c12 | 80 | –
O.O=c1c2ccccc2ncn1-c1nnn[n-]1.[Na+] | – | ED50 (Rattus norvegicus [4]): 0.2 mg/kg; Inhibition (Rattus norvegicus [1]; route oral): 97%; Inhibition (Rattus norvegicus [2]): 93%
COc1cccc2c(=O)n(-c3nn[nH]n3)cnc12 | 44 | –
Cc1nc2ccccc2c(=O)n1-c1nn[nH]n1 | 22 | –
Cc1cccc2c(=O)n(-c3nn[nH]n3)cnc12 | 64 | –
Cc1ccc2ncn(-c3nn[nH]n3)c(=O)c2c1 | 100 | –
O=c1c2ccccc2nc(-c2ccccc2)n1-c1nn[nH]n1 | 27 | –
O=CNc1ccccc1C(=O)Nc1nn[nH]n1 | 89 | inhibition in vivo at 100 mg/kg (Rattus norvegicus [1]): 91%
O=c1c2ccccc2ncn1-c1nc[nH]n1 | 75 | –
O=c1c2ccccc2ncn1-n1cnnc1 | 0 | –
O=c1c2ccccc2ncn1-c1cc[nH]n1 | 5 | –

— ChEMBL document CHEMBL1123376, “3-(1H-tetrazol-5-yl)-4(3H)-quinazolinone sodium salt (MDL 427): a new antiallergic agent” (1986)
